For data set [1], the system named is VNUT. To be noted: known; cited from earlier work.
In data set [2] the test system is chromaffin granule membrane. The experiment in a line: ATP transport (uptake of radiolabeled ATP) in chromaffin granule membrane vesicles. The format is biochemical, cattle. To be noted: role: inhibitor; 1 mM 3H-ATP, 30° C., 1 hour, N=3 (FIG. 5); read-out: IC50 (concentration at 50% inhibition) of ATP transport. As for the experimental part:
(§1) Chromaffin granule membranes were prepared from adrenal glands collected from slaughtered cattle according to Reference A (Nathan Nelson et al., 1988, Chromaffin Granule Proton Pump, Methods in Enzymology, 157, 619-633). Chromaffin granule membranes prepared by sucrose density gradient centrifugation were suspended in 2 ml of SME buffer (20 mM MOPS-tris (pH 7.0), 0.3 M sucrose, 5 mM EDTA, 10 μg/ml leupeptin, and 10 μg/ml pepstatin)+25% glycerol, and the resulting suspension was aliquoted and stored at −80° C. Under these conditions, the ATP transport activity, the V-ATPase activity, and the catecholamine transport activity remain fully active for at least one year.
An ATP transport inhibition experiment for the chromaffin granule membrane was carried out according to Reference B (Yoshinori Moriyama et al., 2022, Is the vesicular nucleotide transporter a molecular target of eicosapentaenoic acid?, Frontiers in Pharmacology, 103389). About 20 μg of chromaffin granule membranes were added to 0.5 ml of measurement buffer (20 mM MOPS-tris (pH 7.0), 0.3 M sucrose, 5 mM potassium chloride, 5 mM magnesium acetate, 5 mM creatine phosphate, 10 units of creatine kinase, and 1 mM 3[H]-ATP [15 KBq/assay]), followed by incubation at 30° C. for 1 hour. Through a Millipore MCE membrane filter with a pore size […], 0.2 ml of the reaction liquid was filtered by suction. Thereafter, the filter was washed with 10 ml of 20 mM MOPS-tris (pH 7.0), 0.3 M sucrose, 5 mM potassium chloride, and 5 mM magnesium acetate, and dissolved in 10 ml of Clear-sol II (manufactured by Nacalai Tesque, Inc.). The radioactivity was then measured using a liquid scintillation counter (N=3).
The reaction was initiated by adding 50 mM ^3[H]-ATP to a final concentration of 1 mM. The 50 mM ^3[H]-ATP was prepared by mixing an ATP-tris solution (manufactured by Sigma-Aldrich) with [2,8-^3H]adenosine triphosphate tetrasodium salt (26.0 Ci/mmol) (manufactured by New England Nuclear). PEP was used as a test reagent, and pyruvic acid was used as a negative control. Five minutes before the addition of ATP, PEP or pyruvic acid, as a solution in 20 mM MOPS-tris (pH 7.0), 0.3 M sucrose, 5 mM potassium chloride, and 5 mM magnesium acetate, was added to the measurement liquid to a final PEP concentration of 0.02, 0.05, 0.1, 0.2, 0.4, or 1 mM, or to a final pyruvic acid concentration of 0.5 or 1 mM.
(§2) Chromaffin granule membrane vesicles were prepared in the same manner as in Example 5, and uptake of radiolabeled ATP into the vesicles was measured. Transport activity of catecholamine (dopamine) and ATP-dependent proton transport by V-ATPase were also measured in the same manner as in Example 5.

For data set [3], the target named is T1, V-ATPase (Bos taurus, UniProt P31404+P31408).
T1 construct: Chromaffin granule membranes were prepared from adrenal glands collected from slaughtered cattle; from tissue; host or cells: cattle adrenal glands, chromaffin granule membranes (sucrose density gradient)
T1 sequence (P31404 whole entry, looked up): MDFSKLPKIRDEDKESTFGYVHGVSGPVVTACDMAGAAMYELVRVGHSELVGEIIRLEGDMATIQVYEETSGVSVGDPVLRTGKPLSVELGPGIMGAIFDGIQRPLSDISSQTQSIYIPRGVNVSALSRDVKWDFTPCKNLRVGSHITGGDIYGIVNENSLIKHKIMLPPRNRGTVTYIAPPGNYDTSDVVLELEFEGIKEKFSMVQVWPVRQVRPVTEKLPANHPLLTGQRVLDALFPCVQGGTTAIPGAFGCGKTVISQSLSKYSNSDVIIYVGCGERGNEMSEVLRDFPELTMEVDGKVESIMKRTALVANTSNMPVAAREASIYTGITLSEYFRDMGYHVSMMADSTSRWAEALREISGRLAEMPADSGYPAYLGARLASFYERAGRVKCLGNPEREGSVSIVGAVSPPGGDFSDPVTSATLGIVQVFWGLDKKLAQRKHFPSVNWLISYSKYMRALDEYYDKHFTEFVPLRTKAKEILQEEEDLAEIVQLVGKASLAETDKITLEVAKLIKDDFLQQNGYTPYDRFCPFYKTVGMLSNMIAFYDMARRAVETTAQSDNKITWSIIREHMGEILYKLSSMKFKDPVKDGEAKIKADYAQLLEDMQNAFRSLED
T1 sequence (P31408 whole entry, looked up): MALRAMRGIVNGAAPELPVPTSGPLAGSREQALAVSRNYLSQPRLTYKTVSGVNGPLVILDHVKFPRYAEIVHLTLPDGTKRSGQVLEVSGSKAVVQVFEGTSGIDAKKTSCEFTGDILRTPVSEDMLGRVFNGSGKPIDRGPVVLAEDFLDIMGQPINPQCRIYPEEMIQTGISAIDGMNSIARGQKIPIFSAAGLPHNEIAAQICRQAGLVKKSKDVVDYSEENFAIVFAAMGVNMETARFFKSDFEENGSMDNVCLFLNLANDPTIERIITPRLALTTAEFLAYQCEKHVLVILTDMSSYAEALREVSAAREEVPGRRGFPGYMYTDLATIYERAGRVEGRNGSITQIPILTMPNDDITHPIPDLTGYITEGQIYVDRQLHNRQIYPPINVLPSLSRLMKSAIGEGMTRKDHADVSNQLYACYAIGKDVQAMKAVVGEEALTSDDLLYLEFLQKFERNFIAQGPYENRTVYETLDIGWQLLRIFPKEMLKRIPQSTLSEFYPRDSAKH
The experiment in a line: ATP-dependent proton transport by V-ATPase (acridine orange fluorescence quenching). It counts as biochemical, cattle. To be noted: role: inhibitor. As for the experimental part: as §1
ATP-dependent proton transport by V-ATPase was measured according to Reference B. Proton transport activity was measured using a spectrofluorometer at excitation wavelength of 492 nm and a fluorescence wavelength 540 nm, wherein fluorescence quenching of acridine orange was used as an index (N=2). The transmembrane potential generated was measured using a spectrofluorometer at an excitation wavelength of 580 nm and a fluorescence wavelength of 630 nm, wherein fluorescence quenching of oxonol-V was used as an index (N=2). The acridine measurement liquid (2 ml) contained 20 mM MOPS-tris (pH 7.0), 0.2 M sucrose, 0.1 M potassium chloride, 5 mM magnesium acetate, 0.2 μg valinomycin, 2 μM acridine orange, and about 20 μg of chromaffin granules. The oxonol-V measurement liquid (2 ml) contained 20 mM MOPS-tris (pH 7.0), 0.3 M sucrose, 5 mM magnesium acetate, 5 μM oxonol-V, and about 20 μg of chromaffin granules.
as §2

Data set [4] concerns the target T1, V-ATPase. The experiment in a line: Transmembrane potential generated (oxonol-V fluorescence quenching) in chromaffin granules. The format is biochemical, cattle. Conditions: role: inhibitor; 5 mM PEP, in presence of ATP, N=2. On the procedure: as §1
ATP-dependent proton transport by V-ATPase was measured according to Reference B. Proton transport activity was measured using a spectrofluorometer at excitation wavelength of 492 nm and a fluorescence wavelength 540 nm, wherein fluorescence quenching of acridine orange was used as an index (N=2). The transmembrane potential generated was measured using a spectrofluorometer at an excitation wavelength of 580 nm and a fluorescence wavelength of 630 nm, wherein fluorescence quenching of oxonol-V was used as an index (N=2). […]

Data set [5] has as its system isolated chromaffin granules. To be noted: role: inhibitor; 1 to 10 mM PEP; cited from earlier work.
Data set [6] relates to VNUT. The data set can be described thus: Inhibitory effect on VNUT (data not shown).
The conditions of data set [7]: cited from earlier work.

For the compound `O=P(O)(O)C(Cl)(Cl)P(=O)(O)O` [clodronate], in the data set on VNUT [1], the VNUT inhibition entry is on record as “known to be a VNUT inhibitor”.
For the compound `C=C(OP(=O)(O)O)C(=O)O` [PEP, phosphoenolpyruvic acid], in data set [2], the IC50 is 25 µM. At V-ATPase [3] (5 mM PEP, in presence of ATP, N=2), the “change in acridine orange quenching level” value is reported as “did not change the level of quenching”. The “inhibition of V-ATPase” value at V-ATPase [3] (up to 5 mM PEP (data not shown)) is “did not inhibit”. Besides, the “change in oxonol-V quenching level” value on V-ATPase [4] is “did not change the level of quenching”. Besides, the “uptake of ATP into isolated chromaffin granules” value in data set [5] is given as “inhibited”.
Consider `C[C@@H]1N=C(N)NC(N(C)C)=N1` [imeglimin], for which the “inhibitory effect on VNUT” value in the data set with VNUT [6] is listed as “neither imeglimin nor metformin exhibited a strong inhibitory effect”. Further, in data set [7] (1 g of imeglimin hydrochloride daily for one week, 10080 min, read-out: blood imeglimin concentration), the concentration is 9 µM. Besides, the “transfer into the body” value in data set [7] (imeglimin) is on record as “extremely low transfer into the body”.

The values are drawn from US20260306500A1, “METHOD OF INHIBITING ADENOSINE TRIPHOSPHATE SECRETION, METHOD OF INHIBITING HEPATIC STELLATE CELL ACTIVATION, METHOD OF DEACTIVATING HEPATIC STELLATE CELL, METHOD OF TREATING HEPATIC FIBROSIS, METHOD OF TREATING NON-ALCOHOLIC STEATOHEPATITIS, AND METHOD OF TREATING PSORIASIS” (Kurume University, priority 2023, published 2026).
